Assay results taken from patent publication US4226865A, “Method of treating depression” (Hoffmann-La Roche Inc., priority 1976, dated 1980).

Experiments:
[1] = tested on: monoamine oxidase (MAO); experiment: MAO inhibiting activity in liver homogenates of rats one hour after p.o. administration; assay type: in vivo; conditions: p.o. in the rat; MAO activity measured in liver homogenates one hour after administration; 60 min
Experimental: (§1) Thus, the thiobenzamides of formula I to be tested were administered p.o. to rats. One hour after the administration, the rats were killed and the MAO inhibiting activity in the liver homogenates was measured according to the method in Biochem. Pharmacol. 12, pp. 1439-1441 (1963). The thus determined activity of representative thiobenzamides of formula I as well as their toxicity is evident from the ED50 values (μmol/kg, p.o. in the rat) or LD50 values (mg/kg, p.o. in the mouse) listed in the Table which follows: […]

[2] = Toxicity (LD50), p.o. in the mouse; conditions: in vivo, po
Experimental: as §1

S=C(NCCN1CCOCC1)c1ccc(Br)cc1 [p-bromo-N-(2-morpholinoethyl)-thiobenzamide]
ED50 (MAO inhibiting activity) [1]: 2 µmol/kg | LD50 [2]: 1250 to 2500 mg/kg

S=C(NCCN1CCOCC1)c1ccc(Cl)cc1 [p-chloro-N-(2-morpholinoethyl)thiobenzamide]
ED50 (MAO inhibiting activity) [1]: 2 µmol/kg | LD50 [2]: 1250 to 2500 mg/kg

CC(C)(C)c1ccc(C(=S)NCCN2CCOCC2)cc1 [p-t-butyl-N-(2-morpholinoethyl)-thiobenzamide]
ED50 (MAO inhibiting activity) [1]: 10 µmol/kg | LD50 [2]: > 5000 mg/kg
